# Measurements taken from PubChem BioAssay (NCI).
# Values joined by “and” are separate entries in the source; they are usually repeats but may differ in a detail not shown here. Equal entries are not always repeated.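 A five-concentration, 48-hour dose response in 96-well plates underlies each endpoint, interpolated linearly between surrounding concentrations. GI50: concentration for 50% inhibition of growth. TGI is the concentration that stops growth completely.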
# What was measured:
# Experiment in all cases: NCI anticancer screen, dose series, 48 h
# 786-0 renal = system: 786-0 renal
# A498 renal = system: A498 renal
# A549 NSCLC = system: A549 NSCLC
# ACHN renal = system: ACHN renal
# BT-549 breast = system: BT-549 breast
# CAKI-1 renal = system: CAKI-1 renal
# CCRF-CEM leukemia = system: CCRF-CEM leukemia
# COLO 205 colon = system: COLO 205 colon
# DU-145 prostate = system: DU-145 prostate
# EKVX NSCLC = system: EKVX NSCLC
# HCC-2998 colon = system: HCC-2998 colon
# HCT-116 colon = system: HCT-116 colon
# HCT-15 colon = system: HCT-15 colon
# HL-60(TB) leukemia = system: HL-60(TB) leukemia
# HOP-62 NSCLC = system: HOP-62 NSCLC
# HOP-92 NSCLC = system: HOP-92 NSCLC
# HS 578T breast = system: HS 578T breast
# HT29 colon = system: HT29 colon
# IGROV1 ovarian = system: IGROV1 ovarian
# K-562 leukemia = system: K-562 leukemia
# KM12 colon = system: KM12 colon
# LOX IMVI melanoma = system: LOX IMVI melanoma
# M14 melanoma = system: M14 melanoma
# MALME-3M melanoma = system: MALME-3M melanoma
# MCF7 breast = system: MCF7 breast
# MDA-MB-231 breast = system: MDA-MB-231 breast
# MDA-MB-435 = system: MDA-MB-435
# MDA-N = system: MDA-N
# MOLT-4 leukemia = system: MOLT-4 leukemia
# NCI-H226 lung = system: NCI-H226 lung
# NCI-H23 lung = system: NCI-H23 lung
# NCI-H460 lung = system: NCI-H460 lung
# NCI-H522 lung = system: NCI-H522 lung
# NCI/ADR-RES ovarian = system: NCI/ADR-RES ovarian
# OVCAR-3 ovarian = system: OVCAR-3 ovarian
# OVCAR-4 ovarian = system: OVCAR-4 ovarian
# OVCAR-5 ovarian = system: OVCAR-5 ovarian
# OVCAR-8 ovarian = system: OVCAR-8 ovarian
# PC-3 prostate = system: PC-3 prostate
# RPMI-8226 leukemia = system: RPMI-8226 leukemia
# RXF 393 renal = system: RXF 393 renal
# SF-268 CNS = system: SF-268 CNS
# SF-295 CNS = system: SF-295 CNS
# SF-539 CNS = system: SF-539 CNS
# SK-MEL-2 melanoma = system: SK-MEL-2 melanoma
# SK-MEL-28 melanoma = system: SK-MEL-28 melanoma
# SK-MEL-5 melanoma = system: SK-MEL-5 melanoma
# SK-OV-3 ovarian = system: SK-OV-3 ovarian
# SN12C renal = system: SN12C renal
# SNB-19 CNS = system: SNB-19 CNS
# SNB-75 CNS = system: SNB-75 CNS
# SR leukemia = system: SR leukemia
# SW-620 colon = system: SW-620 colon
# T-47D breast = system: T-47D breast
# TK-10 renal = system: TK-10 renal
# U251 CNS = system: U251 CNS
# UACC-257 melanoma = system: UACC-257 melanoma
# UACC-62 melanoma = system: UACC-62 melanoma
# UO-31 renal = system: UO-31 renal
smiles,measurement,setting,value
Nc1nc(Cl)c(C=O)c(NCC2(CO)CCC2)n1,TGI,786-0 renal,> 100 µM
same,TGI,A498 renal,67.7 µM
same,TGI,A549 NSCLC,> 100 µM
same,TGI,ACHN renal,> 100 µM
same,TGI,BT-549 breast,> 100 µM
same,TGI,CAKI-1 renal,33.9 µM
same,TGI,CCRF-CEM leukemia,34.1 µM
same,TGI,COLO 205 colon,78.3 µM
same,TGI,DU-145 prostate,> 100 µM
same,TGI,EKVX NSCLC,46.9 µM
same,TGI,HCC-2998 colon,22.9 µM
same,TGI,HCT-116 colon,40.6 µM
same,TGI,HCT-15 colon,25.3 µM
same,TGI,HL-60(TB) leukemia,22.3 µM
same,TGI,HOP-62 NSCLC,65.1 µM
same,TGI,HOP-92 NSCLC,31.1 µM
same,TGI,HS 578T breast,67.9 µM
same,TGI,HT29 colon,> 100 µM
same,TGI,IGROV1 ovarian,25.9 µM
same,TGI,K-562 leukemia,31.7 µM
same,TGI,KM12 colon,> 100 µM
same,TGI,LOX IMVI melanoma,26.9 µM
same,TGI,M14 melanoma,> 100 µM
same,TGI,MALME-3M melanoma,> 100 µM
same,TGI,MCF7 breast,> 100 µM
same,TGI,MDA-MB-231 breast,81.5 µM
same,TGI,MDA-MB-435,> 100 µM
same,TGI,MDA-N,77 µM
same,TGI,MOLT-4 leukemia,65.5 µM
same,TGI,NCI-H226 lung,34 µM
same,TGI,NCI-H23 lung,> 100 µM
same,TGI,NCI-H460 lung,> 100 µM
same,TGI,NCI-H522 lung,14.7 µM
same,TGI,NCI/ADR-RES ovarian,> 100 µM
same,TGI,OVCAR-3 ovarian,42.9 µM
same,TGI,OVCAR-4 ovarian,32.9 µM
same,TGI,OVCAR-5 ovarian,> 100 µM
same,TGI,OVCAR-8 ovarian,33.8 µM
same,TGI,PC-3 prostate,34.6 µM
same,TGI,RPMI-8226 leukemia,> 100 µM
same,TGI,RXF 393 renal,50.1 µM
same,TGI,SF-268 CNS,51.8 µM
same,TGI,SF-295 CNS,67.6 µM
same,TGI,SF-539 CNS,> 100 µM
same,TGI,SK-MEL-2 melanoma,28.3 µM
same,TGI,SK-MEL-28 melanoma,> 100 µM
same,TGI,SK-MEL-5 melanoma,31.4 µM
same,TGI,SK-OV-3 ovarian,69.5 µM
same,TGI,SN12C renal,> 100 µM
same,TGI,SNB-19 CNS,34.4 µM
same,TGI,SNB-75 CNS,67.7 µM
same,TGI,SR leukemia,43.8 µM
same,TGI,SW-620 colon,> 100 µM
same,TGI,T-47D breast,> 100 µM
same,TGI,TK-10 renal,> 100 µM
same,TGI,U251 CNS,31.9 µM
same,TGI,UACC-257 melanoma,> 100 µM
same,TGI,UACC-62 melanoma,35.1 µM
same,TGI,UO-31 renal,58.6 µM
O=C1CSC(c2cccc(Oc3ccccc3)c2)N1c1cccc(Cl)c1Cl (stereo not given),TGI,786-0 renal,87.7 µM
same,TGI,A498 renal,93.5 µM
same,TGI,A549 NSCLC,> 100 µM
same,TGI,ACHN renal,47.9 µM
same,TGI,BT-549 breast,50.4 µM
same,TGI,CAKI-1 renal,> 100 µM
same,TGI,CCRF-CEM leukemia,> 100 µM
same,TGI,COLO 205 colon,44.1 µM
same,TGI,DU-145 prostate,> 100 µM
same,TGI,EKVX NSCLC,99.3 µM
same,TGI,HCC-2998 colon,26.2 µM
same,TGI,HCT-116 colon,38.5 µM
same,TGI,HCT-15 colon,46.8 µM
same,TGI,HL-60(TB) leukemia,70.2 µM
same,TGI,HOP-62 NSCLC,> 100 µM
same,TGI,HOP-92 NSCLC,45.8 µM
same,TGI,HS 578T breast,84.7 µM
same,TGI,HT29 colon,63.1 µM
same,TGI,K-562 leukemia,63.9 µM
same,TGI,KM12 colon,> 100 µM
same,TGI,LOX IMVI melanoma,34.3 µM
same,TGI,M14 melanoma,> 100 µM
same,TGI,MALME-3M melanoma,82.9 µM
same,TGI,MCF7 breast,32.8 µM
same,TGI,MDA-MB-231 breast,> 100 µM
same,TGI,MDA-MB-435,56.1 µM
same,TGI,MDA-N,58.7 µM
same,TGI,MOLT-4 leukemia,55.7 µM
same,TGI,NCI-H226 lung,> 100 µM
same,TGI,NCI-H23 lung,91.4 µM
same,TGI,NCI-H460 lung,71.5 µM
same,TGI,NCI-H522 lung,61.1 µM
same,TGI,NCI/ADR-RES ovarian,59.9 µM
same,TGI,OVCAR-3 ovarian,> 100 µM
same,TGI,OVCAR-4 ovarian,> 100 µM
same,TGI,OVCAR-5 ovarian,> 100 µM
same,TGI,OVCAR-8 ovarian,45.9 µM
same,TGI,PC-3 prostate,95.3 µM
same,TGI,RXF 393 renal,> 100 µM
same,TGI,SF-268 CNS,60 µM
same,TGI,SF-295 CNS,> 100 µM
same,TGI,SF-539 CNS,58.3 µM
same,TGI,SK-MEL-2 melanoma,34.9 µM
same,TGI,SK-MEL-28 melanoma,> 100 µM
same,TGI,SK-MEL-5 melanoma,50 µM
same,TGI,SK-OV-3 ovarian,> 100 µM
same,TGI,SN12C renal,> 100 µM
same,TGI,SNB-19 CNS,> 100 µM
same,TGI,SNB-75 CNS,> 100 µM
same,TGI,SR leukemia,53.8 µM
same,TGI,SW-620 colon,> 100 µM
same,TGI,T-47D breast,> 100 µM
same,TGI,TK-10 renal,> 100 µM
same,TGI,U251 CNS,39.1 µM
same,TGI,UACC-257 melanoma,61.5 µM
same,TGI,UACC-62 melanoma,46.9 µM
same,TGI,UO-31 renal,> 100 µM
CN(C)C1C(=O)C(C(N)=O)=C(O)C2(O)C(=O)C3=C(O)c4c(O)cccc4C(C)(O)C3CC12 (stereo not given),GI50,786-0 renal,26.1 µM and > 100 µM
same,TGI,786-0 renal,63.8 µM and > 100 µM
same,TGI,A498 renal,95.5 µM and > 100 µM
same,TGI,A549 NSCLC,> 100 µM
same,GI50,ACHN renal,39.9 µM and 82.7 µM
same,TGI,ACHN renal,> 100 µM
same,TGI,BT-549 breast,> 100 µM
same,TGI,CAKI-1 renal,> 100 µM
same,GI50,CCRF-CEM leukemia,22.8 µM and 67.5 µM
same,TGI,CCRF-CEM leukemia,57.1 µM and > 100 µM
same,GI50,COLO 205 colon,25.7 µM and > 100 µM
same,TGI,COLO 205 colon,72.2 µM and > 100 µM
same,TGI,DU-145 prostate,> 100 µM
same,TGI,EKVX NSCLC,> 100 µM
same,GI50,HCC-2998 colon,> 100 µM and 42.7 µM
same,TGI,HCC-2998 colon,> 100 µM
same,GI50,HCT-116 colon,23.7 µM and > 100 µM
same,TGI,HCT-116 colon,39.2 µM and > 100 µM
same,TGI,HCT-15 colon,> 100 µM
same,GI50,HL-60(TB) leukemia,24.5 µM and 82.9 µM
same,TGI,HL-60(TB) leukemia,53.2 µM and > 100 µM
same,GI50,HOP-62 NSCLC,37.5 µM and > 100 µM
same,TGI,HOP-62 NSCLC,> 100 µM
same,TGI,HOP-92 NSCLC,> 100 µM
same,TGI,HS 578T breast,> 100 µM
same,GI50,HT29 colon,27.2 µM and > 100 µM
same,TGI,HT29 colon,67.9 µM and > 100 µM
same,TGI,IGROV1 ovarian,> 100 µM
same,GI50,K-562 leukemia,23.2 µM and > 100 µM
same,TGI,K-562 leukemia,48.5 µM and > 100 µM
same,TGI,KM12 colon,> 100 µM
same,TGI,LOX IMVI melanoma,76.5 µM and > 100 µM
same,GI50,M14 melanoma,46.1 µM and > 100 µM
same,TGI,M14 melanoma,> 100 µM
same,TGI,MALME-3M melanoma,> 100 µM
same,TGI,MCF7 breast,> 100 µM
same,GI50,MDA-MB-231 breast,26.2 µM and > 100 µM
same,TGI,MDA-MB-231 breast,> 100 µM
same,GI50,MDA-MB-435,21 µM and > 100 µM
same,TGI,MDA-MB-435,36.8 µM and > 100 µM
same,GI50,MDA-N,17.8 µM and > 100 µM
same,TGI,MDA-N,38.9 µM and > 100 µM
same,GI50,MOLT-4 leukemia,23.5 µM and > 100 µM
same,TGI,MOLT-4 leukemia,46.5 µM and > 100 µM
same,TGI,NCI-H226 lung,> 100 µM
same,GI50,NCI-H23 lung,31.4 µM and > 100 µM
same,TGI,NCI-H23 lung,58.5 µM and > 100 µM
same,TGI,NCI-H460 lung,> 100 µM
same,TGI,NCI-H522 lung,> 100 µM
same,TGI,NCI/ADR-RES ovarian,> 100 µM
same,GI50,OVCAR-3 ovarian,44.5 µM and > 100 µM
same,TGI,OVCAR-3 ovarian,> 100 µM
same,GI50,OVCAR-4 ovarian,31 µM and > 100 µM
same,TGI,OVCAR-4 ovarian,75 µM and > 100 µM
same,TGI,OVCAR-5 ovarian,> 100 µM
same,GI50,OVCAR-8 ovarian,15.4 µM and > 100 µM
same,TGI,OVCAR-8 ovarian,34.9 µM and > 100 µM
same,TGI,PC-3 prostate,> 100 µM
same,TGI,RPMI-8226 leukemia,> 100 µM
same,TGI,RXF 393 renal,87.5 µM and > 100 µM
same,GI50,SK-MEL-2 melanoma,73 µM and 28 µM
same,TGI,SK-MEL-2 melanoma,> 100 µM and 91.8 µM
same,TGI,SK-MEL-28 melanoma,> 100 µM
same,GI50,SK-MEL-5 melanoma,22.4 µM and 56.5 µM
same,TGI,SK-MEL-5 melanoma,39.9 µM and > 100 µM
same,TGI,SK-OV-3 ovarian,> 100 µM
same,GI50,SN12C renal,18.4 µM and > 100 µM
same,TGI,SN12C renal,32.5 µM and > 100 µM
same,GI50,SR leukemia,26.4 µM and > 100 µM
same,TGI,SR leukemia,55.1 µM and > 100 µM
same,GI50,SW-620 colon,23.3 µM and > 100 µM
same,TGI,SW-620 colon,46.1 µM and > 100 µM
same,TGI,T-47D breast,> 100 µM
same,TGI,TK-10 renal,> 100 µM
same,TGI,UACC-257 melanoma,> 100 µM
same,GI50,UACC-62 melanoma,31.7 µM and 90.9 µM
same,TGI,UACC-62 melanoma,> 100 µM
same,GI50,UO-31 renal,41.9 µM and > 100 µM
same,TGI,UO-31 renal,> 100 µM
